Test results published in publication PMC10144242, “Design, Synthesis, In Vitro, and In Silico Insights of 5-(Substituted benzylidene)-2-phenylthiazol-4(5H)-one Derivatives: A Novel Class of Anti-Melanogenic Compounds” (Molecules, 2023).

Assays:
[1] = DPPH radical scavenging assay; conditions: 1 mM, 30 min in the dark
Protocol: The 2,2-diphenyl-1-picrylhydrazyl (DPPH) radical scavenging capacity of the (Z)-BPT derivatives (1 mM) was investigated using L-ascorbic acid (1 mM, vitamin C) as a positive control. […] L-Ascorbic acid scavenged 97.1% of the DPPH radical, whereas (Z)-BPT derivative 1 with a 4-hydroxyl substituent on the β-phenyl ring scavenged 46.5% of the DPPH radical.
The antioxidant properties of (Z)-BPT derivatives 1–14 against DPPH (2,2-diphenyl-1-picrylhydrazyl) radicals were examined using a DPPH radical scavenging assay, as previously described with minor modifications. DPPH solution (180 µL, 0.2 mM) in methanol was mixed with a (Z)-BPT derivative solution (1–14, 20 µL, 10 mM) in dimethyl sulfoxide in each well of a 96-well plate, and the mixture was kept for 30 min in the dark at room temperature. The absorbance at 517 nm was measured using a VersaMax ™ microplate reader (Molecular Devices, Sunnyvale, CA, USA). The capacity of the derivatives to scavenge DPPH radicals was compared with that of L-ascorbic acid, which was used as the positive control. Each experiment was run independently in triplicates.
Figure 10 The radical scavenging effect of (Z)-BPT derivatives on DPPH. The DPPH radical scavenging activities of test samples (1 mM) were assayed after being left in the dark for 30 min. Distilled water and dimethyl sulfoxide (DMSO) were utilized as the solvents for the positive control L-ascorbic acid and the (Z)-BPT derivatives, respectively. Asterisks (***) represent a significant difference between L-ascorbic acid and the (Z)-BPT derivatives, and results are expressed as the mean ± standard error of three different experiments. *** p < 0.001.

B16F10 cells = assay: Cell viability / cytotoxicity, EZ-Cytox assay; assay type: cell-based, murine
Protocol: Before investigating their inhibitory effects on B16F10 cells, the viability of (Z)-BPT derivatives 1–3 was examined in B16F10 cells.
To determine the cell viability, six different concentrations (0, 1, 2, 5, 10, and 20 µM) of (Z)-BPT derivatives 1–3 were used, and the results were examined at two time points (48 and 72 h). […] Based on the cell viability results, the concentrations for cell-based assays related to the melanin production level and cellular tyrosinase activity were determined.
Cytotoxicity studies of (Z)-BPT derivatives 1–3 were performed on B16F10 melanoma cells using the previously established EZ-Cytox (EZ-3000, DoGenBio, Seoul, Republic of Korea) test, and cytotoxicity studies of (Z)-BPT derivatives 1–3 were conducted on B16F10 melanoma cells. Briefly, B16F10 cells were seeded in a 96-well plate at a density of 1 × 10^4 cells/well and cultivated at 37 °C for 24 h in a humid environment with 5% CO2. […] The cells were then incubated at 37 °C for 2 h after 10 µL of the EZ-Cytox solution had been added to each well. To determine the cell viability, the absorbance of each well was measured at 450 nm using a microplate reader (VersaMax^TM, Molecular Devices, Sunnyvale, CA, USA). Each assay was performed in triplicates.
Figure 6 Effects of (Z)-BPT derivatives 1–3 on cell viability in B16F10 cells. Cytotoxic effects were measured using an EZ-Cytox assay at six different concentrations (0, 1, 2, 5, 10, and 20 µM) of 1–3. (A) Derivative 1; (B) Derivative 2; (C) Derivative 3. *** p < 0.001 for non-treated cells vs. cells treated with 3.

mushroom tyrosinase [2] = target: T1, mushroom tyrosinase (Agaricus bisporus, UniProt C7FF04); assay: Kinetic studies on mushroom tyrosinase inhibition (Lineweaver–Burk and Dixon plots, L-DOPA substrate); assay type: biochemical; design: purchased Sigma-Aldrich
Protocol: As depicted in Figure 2, the mechanisms of tyrosinase inhibition were analyzed using Lineweaver–Burk plots. […] Each of the four straight lines produced at each inhibitor concentration converged to a single point on the y-axis. […] In contrast, in derivative 3, four straight lines generated at each inhibitor concentration intersected at a point in the second quadrant. According to the Lineweaver–Burk plot, as the inhibitor concentration increased, the Vmax value of 3 decreased, but the KM value increased.
To determine the Ki (inhibition constant) values of (Z)-BPT derivatives 1–3, Lineweaver–Burk plots for 1–3 were transformed into the corresponding Dixon plots (Figure 3). Each Dixon plot obtained from each Lineweaver–Burk plot produced four straight lines that intersected at one point in the second quadrant. The vertical lines from the merge point to the x-axis provide the Ki value of each (Z)-BPT derivative.
To determine the mode of action, Lineweaver–Burk plots of (Z)-BPT derivatives 1–3 were acquired. In brief, 10 µL of (Z)-BPT derivatives 1–3 (final concentrations:0, 3, 6, or 12 µM for 1; 0, 0.05, 0.1, or 0.2 µM for 2; 0, 2.5, 5, or 10 µM for 3) was added to a 96-well plate containing a substrate mixture (170 µL) consisting of an aqueous solution of L-dopa at final concentrations of 0.5, 1.0, 2.0, or 4.0 mM and 14.7 mM potassium phosphate buffer (pH 6.5), and a mushroom tyrosinase aqueous solution (20 µL, 20 units). Using a microplate reader (VersaMax^TM, Molecular Devices, Sunnyvale, CA, USA) to measure the increase in absorbance at a wavelength of 492 nm (ΔOD492/min), the initial rate of dopachrome synthesis in the reaction mixture was estimated. Using five different concentrations of L-dopa, Lineweaver–Burk plots (inverse of the response rate (1/V) vs. inverse of L-dopa concentration (1/(S)) were created. The convergence points of the four plot lines were used to define the mode of action of tyrosinase inhibition.
Figure 2 Lineweaver–Burk plots for the inhibition of mushroom tyrosinase activity by (Z)-BPT derivatives 1–3. […] Three independent experiments with five different concentrations (0.5, 1, 2, 4, and 8 mM) of an L-DOPA substrate were used to measure the augmented dopachrome optical density per minute at 492 nm. The data are shown as mean values of 1/V (an inverse of that optical density per minute). The (Z)-BPT derivatives were used at concentrations of 0 (filled circles), 3 (unfilled circles), 6 (filled triangles), and 12 µM (unfilled triangles) for 1; 0 (filled circles), 0.05 (unfilled circles), 0.1 (filled triangles), and 0.2 µM (unfilled triangles) for 2; and 0 (filled circles), 2.5 (unfilled circles), 5 (filled triangles), and 10 µM (unfilled triangles) for 3. Each experiment was run independently in triplicates.
Figure 3 Dixon plots for the inhibition of mushroom tyrosinase activity by (Z)-BPT derivatives 1–3. The Ki values of (Z)-BPT derivatives 1–3 were obtained from the absolute values of the x-coordinate where four straight lines converged at one point. Three independent experiments with four different concentrations of (Z)-BPT derivatives were conducted to measure the augmented dopachrome optical density per minute at 492 nm. The data are shown as the mean values of 1/V (an inverse of that optical density per minute). The (Z)-BPT derivatives were used at concentrations of 0, 3, 6, and 12 µM for 1; 0, 0.05, 0.1, and 0.2 µM for 2; and 0, 2.5, 5, and 10 µM for 3. The experiments were performed at four different concentrations (0.5, 1, 2, and 4 mM) of L-DOPA. Each experiment was run independently in triplicates.
Target sequence in this assay (C7FF04 1-392 limits assumed): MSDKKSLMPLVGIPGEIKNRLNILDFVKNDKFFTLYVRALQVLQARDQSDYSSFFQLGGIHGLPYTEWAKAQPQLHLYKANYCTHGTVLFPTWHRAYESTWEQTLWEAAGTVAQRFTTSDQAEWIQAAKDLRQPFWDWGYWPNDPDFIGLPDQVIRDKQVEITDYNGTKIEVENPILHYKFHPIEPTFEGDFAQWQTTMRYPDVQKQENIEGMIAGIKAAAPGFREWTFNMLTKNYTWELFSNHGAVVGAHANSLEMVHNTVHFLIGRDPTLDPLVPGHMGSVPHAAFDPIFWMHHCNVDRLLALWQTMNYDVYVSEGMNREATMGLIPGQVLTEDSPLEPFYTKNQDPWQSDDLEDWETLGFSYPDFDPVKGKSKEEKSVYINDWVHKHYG

mushroom tyrosinase [3] = target: T1, mushroom tyrosinase; assay: Inhibition assay against mushroom tyrosinase (L-tyrosine substrate); assay type: biochemical
Target sequence in this assay (C7FF04 1-392): as the sequence (C7FF04 1-392 limits assumed) above
Protocol: Therefore, the inhibitory effect of 14 synthetic (Z)-BPT derivatives on mushroom tyrosinase was investigated according to a previously described procedure [39].
Tyrosinase inhibition experiments were performed independently in triplicates. […] The IC50 values are presented as the mean ± standard error of the mean (SEM).
Minor modifications were made to the previous description of the inhibitory activity of mushroom tyrosinase [39]. […] After 30 min incubation at 37 °C, the amount of dopachrome produced in the assay mixture was measured at 492 nm using a microplate reader (VersaMax^TM, Molecular Devices, Sunnyvale, CA, USA) for determining the remaining tyrosinase activity. To obtain the IC50 values for each test sample, dose-dependent inhibition studies were performed in triplicates using three to five different concentrations of each test sample.

SMILES | DPPH radical scavenging activity [1] | other results
O=C1N=C(c2ccccc2)S/C1=C\c1ccc(O)c(O)c1 [Compound 3, (Z)-5-(3,4-Dihydroxybenzylidene)-2-phenylthiazol-4(5H)-one] | 96.2% | concentrations showing cytotoxic effects (B16F10 cells; at 72 h (first statement of the sentence)): ≥ 5 µM; concentrations showing cytotoxic effects (B16F10 cells; at 72 h (second statement of the sentence)): ≥ 2 µM; Ki (mushroom tyrosinase [2]; Dixon plots, read-out: Ki (inhibition constant)): 4.8 µM; Inhibition type (mushroom tyrosinase [2]; Lineweaver–Burk plot): mixed-type inhibitor
COc1cc(/C=C2\SC(c3ccccc3)=NC2=O)ccc1O [Compound 4, (Z)-5-(4-Hydroxy-3-methoxybenzylidene)-2-phenylthiazol-4(5H)-one] | 81.0% | 
CCOc1cc(/C=C2\SC(c3ccccc3)=NC2=O)ccc1O [Compound 5, (Z)-5-(3-Ethoxy-4-hydroxybenzylidene)-2-phenylthiazol-4(5H)-one] | 58.0% | 
COc1ccc(/C=C2\SC(c3ccccc3)=NC2=O)cc1O [Compound 6, (Z)-5-(3-Hydroxy-4-methoxybenzylidene)-2-phenylthiazol-4(5H)-one] | 25.1% | 
O=C1N=C(c2ccccc2)S/C1=C\c1ccccc1O [Compound 7, (Z)-5-(2-Hydroxybenzylidene)-2-phenylthiazol-4(5H)-one] |  | mushroom tyrosinase inhibitory activity (in words) (mushroom tyrosinase [3]): did not exhibit mushroom tyrosinase inhibitory activity
COc1cc(/C=C2\SC(c3ccccc3)=NC2=O)cc(OC)c1O [Compound 12, (Z)-5-(4-Hydroxy-3,5-dimethoxybenzylidene)-2-phenylthiazol-4(5H)-one] | moderate to strong DPPH radical scavenging activity | 
O=C1N=C(c2ccccc2)S/C1=C\c1ccc(O)c(Br)c1 [Compound 13, (Z)-5-(3-Bromo-4-hydroxybenzylidene)-2-phenylthiazol-4(5H)-one] | 14.8% | 
O=C1N=C(c2ccccc2)S/C1=C\c1cc(Br)c(O)c(Br)c1 [Compound 14, (Z)-5-(3,5-Dibromo-4-hydroxybenzylidene)-2-phenylthiazol-4(5H)-one] | 57.3% | 
O=C1O[C@H]([C@@H](O)CO)C(O)=C1O [L-Ascorbic acid, L-ascorbic acid, reference compound] | 97.1% | 
